Like-named read-outs stand apart in the source and are kept apart here.
Tests used:
[1] = Example 1: percutaneous [3H]-4-hydroxy tamoxifen delivery in breast cancer patients (tissue, blood, urine radioactivity)
Description: The patients received [^3H]-labeled drug applied directly on the affected breasts at specified intervals ranging from 12 hours to 7 days before surgery to excise diseased tissue. Breast tissue from three regions: the tumor, tissue immediately surrounding the tumor, and normal tissue, was excised and immediately frozen in liquid nitrogen. Additionally, plasma and urine samples were obtained at scheduled intervals and frozen until analysis.

[2] = test system: mastalgia; conditions: cited from earlier work; for side effects: cyclical mastalgia treatment, nausea, vomiting, dizziness, headache, acne, sweating, amenorrhea, weight gain
[3] = test system: rat liver; conditions: in vivo; cited from earlier work
[4] = test system: mastalgia; assay: Example 4: efficacy of percutaneous 4-hydroxy tamoxifen in mastalgia; format: in vivo, human
Description: All patients had normal mammograms within the previous 6 months, and utilized contraception throughout the study and 3 months preceding it.
The primary criteria considered were the number of painful days per month and the mean pain severity during the last 10 days of the menstrual cycle. Assessments of pain were made by patient self-evaluation. Secondary criteria included clinical assessment by the physician of breast tenderness, nodularity, breast size, local warmth, and breast circumference. Any side effects were recorded.
Daily self-evaluation of pain continued as in the earlier stage.

[5] = Example 3: pharmacokinetics of 4-hydroxy tamoxifen gel in healthy premenopausal women; format: in vivo, human
Description: Each participant applied the gel daily for the duration of two menstrual cycles.
At the end of a menstrual cycle, each patient received a single dose, after which serial blood samples were collected at 0, 0.5, 1, 1.5, 2, 3, 4, 6, 12, 18, 24, 36, 48, and 72 hours.
On the first day of the following menstruation, treatment, which consisted of daily application of the gel over two menstrual cycles, began. Blood samples were collected 24 hours following the morning application of gel on days 7, 20 and 25 of the first and second cycles. On the last day of administration, day 25 of the second menstrual cycle, serial blood samples were collected prior to application and at 0.5, 1, 1.5, 2, 3, 4, 6, 12, 18, 24, 36, 48, and 72 hours after application of the gel.

[6] = Skin penetration; conditions: without assistance from penetration enhancers

SMILES: CC/C(=C(\c1ccccc1)c1ccc(OCCN(C)C)cc1)c1ccccc1 [tamoxifen]
- retention in the breast ([1]; percutaneous application of [3H]-labeled drug to the affected breast): shorter and far weaker
- side effects reported by mastalgia patients ([2]; oral tamoxifen): hot flashes, vaginal discharge, depression, amenorrhea, and nausea
- patients with reduced pain ([2]; orally administered, patients with moderate to severe mastalgia): 71-90%
- effective at reducing pain ([2]; patients with cyclical mastalgia): 94%
- effective at reducing pain ([2]; patients with non-cyclical mastalgia): 56%

SMILES: CCC(=C(c1ccc(O)cc1)c1ccc(O)cc1)c1ccccc1 [Bisphenol]
- % Metabolites in Breast Tissue ([1]; 12 hr after percutaneous trans-[3H]-4-hydroxy tamoxifen to the affected breast): 1%
- share of radioactivity in blood ([1]; 24 hours after percutaneous administration of [3H]-4-hydroxy tamoxifen): 11%
- % Metabolites in Breast Tissue ([1]; 24 hr after percutaneous trans-[3H]-4-hydroxy tamoxifen to the affected breast): 2%
- % Metabolites in Breast Tissue ([1]; 36 hr after percutaneous trans-[3H]-4-hydroxy tamoxifen to the affected breast): 3%
- % Metabolites in Breast Tissue ([1]; Day 4 after percutaneous trans-[3H]-4-hydroxy tamoxifen to the affected breast): 8%
- % Metabolites in Breast Tissue ([1]; Day 7 after percutaneous trans-[3H]-4-hydroxy tamoxifen to the affected breast): 8%

SMILES: CC/C(=C(\c1ccccc1)c1ccc(OCCN(C)C)cc1)c1ccccc1 [[^3H]-tamoxifen, reference compound]
- plateau of radioactivity in blood ([1]; percutaneous application): 2 days

SMILES: CC(C)C[C@H]1C(=O)N2CCC[C@H]2[C@]2(O)O[C@](NC(=O)[C@@H]3C=C4c5cccc6[nH]c(Br)c(c56)C[C@H]4N(C)C3)(C(C)C)C(=O)N12 [bromocriptine]
- side effects [2]: significant unwanted side effects

SMILES: CC/C(=C(\c1ccc(O)cc1)c1ccc(OCCN(C)C)cc1)c1ccccc1 [4-hydroxy tamoxifen, 1-[4-(2-N-dimethylaminoethoxy)phenyl]-1-(4-hydroxyphenyl)-2-phenylbut-1-(Z)-ene]
- rat liver carcinogenicity [3]: not
- peak urinary elimination compared to percutaneous tamoxifen ([1]; percutaneous administration): later time
- metabolism in cytosolic and nuclear fractions of breast tissue ([1]; percutaneous application): remained unmetabolized except for limited isomerization from the trans to the cis form
- reduction of mean number of days with pain ([4]; 1.5 mg/day): more than 50%
- reduction of mean pain intensity ([4]; 1.5 mg/day): more than 50%
- Mean Number of Days of Pain Level Greater than 20 ([4]; 1 dose/breast, 0.5 mg/day, placebo 8.1 +/− 4.2): 9.3 ± 5.2 days
- Mean Pain Intensity During the Last 10 Days of the Menstrual Cycle ([4]; 1 dose/breast, 0.5 mg/day, placebo 34 +/− 25): 38 +/− 25 /100
- Mean Number of Days of Pain Level Greater than 20 ([4]; 2 doses/breast, 1.0 mg/day): 8.2 ± 5.5 days
- Mean Pain Intensity During the Last 10 Days of the Menstrual Cycle ([4]; 2 doses/breast, 1.0 mg/day): 29 +/− 23 /100
- Mean Number of Days of Pain Level Greater than 20 ([4]; 3 doses/breast, 1.5 mg/day): 3.6 ± 5.2 days
- Mean Pain Intensity During the Last 10 Days of the Menstrual Cycle ([4]; 3 doses/breast, 1.5 mg/day): 15 +/− 19 /100
- Mean Number of Days of Pain Level Greater than 20 ([4]; 4 doses/breast, 2.0 mg/day): 4.7 ± 4.4 days
- Mean Pain Intensity During the Last 10 Days of the Menstrual Cycle ([4]; 4 doses/breast, 2.0 mg/day): 17 +/− 19 /100
- plasma concentrations after the last gel application ([5]; 72 hours after the last gel application): remained detectable
- Plasma concentration of 4-hydroxy tamoxifen, Mean ± SD (Range) ([5]; +8 days after last application, 0.5 mg/day, gel 20 mg/100 g): <LOQ
- Plasma concentration of 4-hydroxy tamoxifen, Mean ± SD (Range) ([5]; +8 days after last application, 1 mg/day, gel 57 mg/100 g): (0-14.8) pg/mL
- Plasma concentration of 4-hydroxy tamoxifen, Mean ± SD (Range) ([5]; +12 days after last application, 0.5 mg/day, gel 20 mg/100 g): ≤ 9.09 pg/mL
- Plasma concentration of 4-hydroxy tamoxifen, Mean ± SD (Range) ([5]; +12 days after last application, 2 mg/day, gel 57 mg/100 g): (0-30.4) pg/mL
- Plasma concentration of 4-hydroxy tamoxifen, Mean ± SD (Range) ([5]; +20 days after last application, 0.5 mg/day, gel 20 mg/100 g): 0 pg/mL
- Plasma concentration of 4-hydroxy tamoxifen, Mean ± SD (Range) ([5]; +20 days after last application, 1 mg/day, gel 20 mg/100 g): <LOQ
- Plasma concentration of 4-hydroxy tamoxifen, Mean ± SD (Range) ([5]; First cycle, Day 1, 0 hr, 0.5 mg/day, gel 20 mg/100 g): (0-17.2) pg/mL
- Plasma concentration of 4-hydroxy tamoxifen, Mean ± SD (Range) ([5]; First cycle, Day 1, 0 hr, 1 mg/day, gel 20 mg/100 g): (0-13.9) pg/mL
- Plasma concentration of 4-hydroxy tamoxifen, Mean ± SD (Range) ([5]; First cycle, Day 1, 0 hr, 1 mg/day, gel 57 mg/100 g): (0-9.5) pg/mL
- Plasma concentration of 4-hydroxy tamoxifen, Mean ± SD (Range) ([5]; First cycle, Day 1, 0 hr, 2 mg/day, gel 57 mg/100 g): (0-0) pg/mL
- plasma concentrations after a single dose ([5]; single 0.5 mg dose, gel): did not produce detectable plasma concentrations
- skin penetration [6]: poorly penetrates the skin

SMILES: C#C[C@]1(O)CC[C@H]2[C@@H]3CCC4=Cc5oncc5C[C@]4(C)[C@H]3CC[C@@]21C [danazol]
- side effects [2]: significant unwanted side effects
- efficacy at relieving cyclical mastalgia ([2]; human, in vivo): some efficacy
